From patent publication US20020052409A1, “Compounds and methods for treating mitochondria-associated diseases” (priority 1998, published 2002) come the findings set out here.

Data set [1] has as its system human cytoplasmic hybrid (“cybrid”) cells. Description: Assay for mitochondrial permeability transition using DASPMI (ionomycin-induced fluorescence decay). The class given is cell-based. As to conditions: DASPMI-loaded cybrid cells, ionomycin induced membrane potential collapse.
Description: B. Assay for Mitochondrial Permeability Transition (MPT) Using 2-,4-Dimethvlaminostyryl-N-Methvlpyridinium (DASPMI).
According to this assay, one may determine the ability of a mitochondria protecting agent of the invention to inhibit the loss of mitochondrial membrane potential that accompanies mitochondrial dysfunction. […] This loss of membrane potential or mitochondrial permeability transition (MPT) can be quantitatively measured using the mitochondria-selective fluorescent probe 2-,4-dimethylaminostyryl-N-methylpyridinium (DASPMI).
Upon introduction into cell cultures, DASPMI accumulates in mitochondria in a manner that is dependent on, and proportional to, mitochondrial membrane potential. If mitochondrial function is disrupted in such a manner as to compromise membrane potential, the fluorescent indicator compound leaks out of the membrane bounded organelle with a concomitant loss of detectable fluorescence. Fluorimetric measurement of the rate of decay of mitochondria associated DASPMI fluorescence provides a quantitative measure of loss of membrane potential, or MPT.
Culture supernatants are then removed and various concentrations of candidate mitochondria protecting agents diluted into HBSS from DMF stocks, or vehicle controls, are added at various concentrations. Mitochondria protecting agents are introduced to cells either before, or at the same time as, introduction of the cells to ionomycin (described below).
Fluorescence of each microculture in the 96-well plate is quantified immediately using a Molecular Devices fmax™ fluorimetric plate reader (Molecular Devices Corp., Sunnyvale, Calif.; excitation wavelength=485 nm; emission wavelength=590 nm) and to fluorescence is recorded. Thereafter, induction of mitochondrial membrane potential collapse is initiated by the addition of ionomycin (Calbiochem, San Diego, Calif.). Ionomycin stock solutions of various concentrations from 0.1-40 μM are prepared in warm Hank's balanced salt solution (HBSS) and diluted for addition to cells to achieve a final concentration of 0.05-20 μM, with final concentrations of 4-10 μM being preferred. Fluorescence decay of DASPMI-loaded, ionomycin induced cells is monitored as a function of time from 0-500 seconds following addition of ionomycin. The maximum negative slope (V-max) is calculated from a subset of the data using analysis software provided by the fluorimetric plate reader manufacturer. In addition, the initial and final signal intensities are determined and the effects of candidate mitochondria protecting agents on the rate of signal decay are quantified.
The subject of data set [2] is cybrid cells (MixCon, 1685 cells). The data set can be described thus: Ionomycin induced apoptosis in cybrid cells: cytochrome c release (ProteinChip/SELDI). As to conditions: 100 μM at the same time ionomycin (10 μM) was introduced; FIGURE. The data set is classed as cell-based, human. The source says: In another aspect of the apoptosis assays, quantification of the mitochondrial protein cytochrome c that has leaked out of mitochondria in apoptotic cells may provide an apoptosis indicator that can be readily determined (Liu et al., Cell 86:147-157, 1996). Such quantification of cytochrome c may be performed spectrophotometrically, immunochemically or by other well established methods for detecting the presence of a specific protein. Release of cytochrome c from mitochondria in cells challenged with apoptotic stimuli (e.g., ionomycin, a well known calcium ionophore) can be followed by a variety of immunological methods. Matrix-assisted laser desorption ionization time of flight mass (MALDI-TOF) spectrometry coupled with affinity capture is particularly suitable for such analysis since apo-cytochrome c and holo cytochrome c can be distinguished on the basis of their unique molecular weights. […] The molecular weight of the protein is determined by its time of flight to the detector of the SELDI mass spectrometer. […]
Cytochrome c antibody was covalently bound to solid support chips containing a pre-activated surface (ProteinChip, Ciphergen, Palo Alto, Calif.). […] After removal of the Tris-saline buffer, the chip was rinsed with 1× PBS and was ready for capture of the antigen. […]

The subject of data set [3] is 1685 cells. Description: Thapsigargin induced apoptosis (cell death, propidium iodide). The following applies: for % Non-Viable Cells with Thapsigargin and with Cmpd. / cytotoxicity at 100 µM: thapsigargin 1 μM plus agent 100 μM, 24 hours; for Δ Cell Viability: [% Non-Viable Cells (with Thapsigargin, without Cmpd)] − [% Non-Viable Cells (with Thapsigargin, with Cmpd)], agent 100 μM; for cytotoxicity at 100 µM: Homo sapiens, read-out: % Non-Viable Cells with Thapsigargin and with Cmpd. The data set is classed as cell-based, human. Here is the method:
In another aspect of the apoptosis assays, the ratio of living to dead cells, or the proportion of dead cells, in a population of cells exposed to an apoptogen is determined as a measure of the ultimate consequence of apoptosis. Living cells can be distinguished from dead cells using any of a number of techniques known to those skilled in the art.
In order to determine the effect of compounds of this invention on the final endpoint of apoptosis (cell death), the following assays were carried out. […] Cells were plated (3×10^4 cells per well) on 96-well plates 48 hours prior to thapsigargin treatment. Thapsigargin (Calbiochem, La Jolla, Calif.) alone (final concentration, 1 μM), thapsigargin (1 μM) plus agent final concentration, 100 μM), agent alone (100 μM) in growth media, or growth media devoid of both thapsigargin and agent, were added to cells in four separate wells.
Twenty-four hours after thapsigargin +/− agent treatment, propidium iodide (Sigma Chemical Co., St. Louis, Mo.) was added to each well at a final concentration of 10 μg/ml per well. […] The resulting fluorescence values correspond to cells in the monolayer of a well that are non-viable.
(§1) Next, the media was aspirated, and the monolayer was fixed (killed) by adding 100 μl of 100% ethanol to each well followed by incubation at ambient temperature for 10 minutes. The fluorescense in each well was then read again. The fluorescence values resulting from the second reading correspond to the total number of cells (whether viable or non-viable at the time of the initial fluorescence reading) present in the monolayer of a well.

Data set [4] has as its system 1685 cells. The data set can be described thus: Cytotoxic effects of compounds, no thapsigargin (propidium iodide). The data set is classed as cell-based, human. The procedure:
In order to determine the effect of compounds of this invention on the final endpoint of apoptosis (cell death), the following assays were carried out. The cells used were 1685 cells, “1685” being the designation of a cybrid cell line derived from SH-SY5Y and containing mitochondria from a patient having Alzheimer's disease (see U.S. Pat. No. 5,888,498, issued Mar. 30, 1999, hereby incorporated by reference). Cells were plated (3×10^4 cells per well) on 96-well plates 48 hours prior to thapsigargin treatment. Thapsigargin (Calbiochem, La Jolla, Calif.) alone (final concentration, 1 μM), thapsigargin (1 μM) plus agent final concentration, 100 μM), agent alone (100 μM) in growth media, or growth media devoid of both thapsigargin and agent, were added to cells in four separate wells.
Twenty-four hours after thapsigargin +/− agent treatment, propidium iodide (Sigma Chemical Co., St. Louis, Mo.) was added to each well at a final concentration of 10 μg/ml per well. The cells were incubated at ambient temperature for 10 minutes, after which the fluorescence (excitation max=536 nm, 544 nm used for excitation; emission max=617, readings at 612 nm) was determined for each individual well in a fmax™ fluorescence microplate reader (Molecular Devices, Sunnyvale, Calif.). The resulting fluorescence values correspond to cells in the monolayer of a well that are non-viable.
as §1
The results, presented in Table 4 below, are expressed as the percentage of non-viable cells as a proportion of the […] cells (fixed controls).
The ΔCell Viability values resulting from treating cells with agents in this class in the absence of thapsigargin (Table 4, infra) closely parallel the ΔCell Viability values that result when cells are treated with the respective agent and thapsigargin ([…]).

Data set [5] deals with SH-SY5Y neuroblastoma cells. The data set can be described thus: Ionomycin-induced apoptosis in neuroblastoma cells (membrane blebbing, light microscopy). The class given is cell-based, human. The following applies: 2 mM, simultaneously with 10 μM ionomycin; 6h incubation; ionomycin alone approximately 80%, untreated <5%. Here is the method: SH-SY5Y neuroblastoma cells (1×10^5 cells) were rinsed with one volume 1X PBS, and then treated with 10 μM ionomycin (Calbiochem, San Diego, Cass.) in DMEM supplemented with 10% fetal calf serum (FCS) (Gibco, Life Technologies, Grand Island, N.Y.) for 10 minutes, followed by two washes with DMEM (10% FCS). After 6h incubation at 37° C. in DMEM (10% FCS), cells were visualized by light microscopy (20X magnification). […] When cells were simultaneously treated with ionomycin and 2 mM creatine, the proportion of cells undergoing apoptosis as evidenced by membrane blebbing was reduced to approximately 10%.

The term IC50 denotes the point on the concentration scale where inhibition reaches its midpoint. A lower IC50 goes with inhibition by little substance.

SMILES strings stand for the structures.

As to `N=C(N)Nc1ccc(C(=O)O)cc1` [4-Guanidinobenzoic Acid], the IC50 in data set [1] turned out to be 1000 µM.

Take `N=C(N)NC(=N)Nc1ccccc1` [(1 1)]: the cytochrome c release entry in data set [2] is listed as “attenuation of cytochrome release”.

For the compound `COc1cc(NC(=N)N)cc(OC)c1OC` [(3)], in the data set with 1685 cells [3], the “% Non-Viable Cells with Thapsigargin and with Cmpd.” value is given as 46.7%.

Turning to `COc1cc(C(=O)O)ccc1NC(=N)N` [(12)], in the data set on 1685 cells [3], the “Δ Cell Viability” value was 1.8%; the “% Non-Viable Cells with Thapsigargin and with Cmpd.” value was determined as 37.5%.

As to `COc1cc(NC(=N)N)c(Cl)cc1C(=O)O` [(13)], the “% Non-Viable Cells with Thapsigargin and with Cmpd.” value with 1685 cells [3] is 52.8%. In addition, the “Δ Cell Viability” value in the data set with 1685 cells [4] is −22.2%.

Turning to `N=C(N)Nc1cc(C(F)(F)F)cc(C(F)(F)F)c1` [(14)], in the data set on 1685 cells [3], the “% Non-Viable Cells with Thapsigargin and with Cmpd.” value worked out at 47.9%.

On to `N=C(N)Nc1cc(F)cc(F)c1` [(15)], for which the “% Non-Viable Cells with Thapsigargin and with Cmpd.” value with 1685 cells [3] is 42.2%.

For the compound `CCCCCCOc1ccc(NC(=N)N)cc1` [(16)], the “% Non-Viable Cells with Thapsigargin and with Cmpd.” value in the data set with 1685 cells [3] worked out at 121.2%. In the data set with 1685 cells [4], the “Δ Cell Viability” value is −106.7%.

As for `N=C(N)Nc1ccc(F)cc1` [(17)], the “% Non-Viable Cells with Thapsigargin and with Cmpd.” value in the data set on 1685 cells [3] came to 56.9%. For the same compound, the “Δ Cell Viability” value in the data set on 1685 cells [4] is recorded as −23.6%.

Regarding `N=C(N)Nc1ccccc1CO` [(19)], the “% Non-Viable Cells with Thapsigargin and with Cmpd.” value in the data set on 1685 cells [3] was 44.3%.

Regarding `N=C(N)Nc1ccc(O)c(C(=O)O)c1` [(23)], in the data set with 1685 cells [3], the “Δ Cell Viability” value is listed as 0.6%; the “% Non-Viable Cells with Thapsigargin and with Cmpd.” value amounted to 49.8%.

For the compound `N=C(N)Nc1ccc(N2CCOCC2)cc1` [(27)], in the data set on 1685 cells [3], the “Δ Cell Viability” value is reported as 7.9%; the “% Non-Viable Cells with Thapsigargin and with Cmpd.” value was determined as 42.5%.

Turning to `N=C(N)NCCc1ccc(O)c(O)c1` [(28)], the “% Non-Viable Cells with Thapsigargin and with Cmpd.” value in the data set with 1685 cells [3] amounted to 52.3%.

Take `N=C(N)NC(=N)Nc1ccc(C(=O)O)cc1` [(34)]: in the data set with 1685 cells [3], the “Δ Cell Viability” value worked out at 2.9%; the “% Non-Viable Cells with Thapsigargin and with Cmpd.” value came out at 42.4%.

Turning to `CC(C)(C)c1cc(CNNC(=N)N)cc(C(C)(C)C)c1O` [Compound (1)], the “ΔCell Viability” value with 1685 cells [3] ((+thapsigargin, −compound)—(+thapsigargin, +compound), approximate values) was “about 3.5”. For the same compound, in the data set on 1685 cells [3], the cytotoxicity at 100 µM amounted to 38.3% and the “Δ Cell Viability” value is recorded as 3.2%.

For the compound `CN(Cc1cc(C(C)(C)C)c(O)c(C(C)(C)C)c1)NC(=N)N` [Compound (4)], the midpoint of inhibition in data set [1], the IC50, lay at 10 µM. Besides, in the data set with 1685 cells [3], the cytotoxicity at 100 µM stood at 43.8% and the “Δ Cell Viability” value is given as 2.1%.

As to `CCCCCCCCc1ccc(O)c(NC(=N)N)c1` [Compound (6)], in the data set with 1685 cells [3], the cytotoxicity at 100 µM stood at 122%. Besides, the “Δ Cell Viability” value in the data set on 1685 cells [4] (no thapsigargin, [% Non-Viable Cells (without Cmpd)] − [% Non-Viable Cells (with Cmpd)]) is given as −109.0%. In the data set on 1685 cells [4] (no thapsigargin, agent alone 100 μM, 24 hours), the “% Non-Viable Cells with Cmpd.” value is listed as 125.2%.

For the compound `CCCCCCCCc1ccc(NC(=N)N)cc1` [Compound (31)], the “% Non-Viable Cells with Thapsigargin and with Cmpd.” value with 1685 cells [3] is on record as 100.0%. In the data set on 1685 cells [4], the “Δ Cell Viability” value is reported as −83.5%.

Turning to `CN(CC(=O)O)C(=N)N` [Creatine], in data set [1], it took 2000 µM to reach half-maximal inhibition (IC50). Besides, the “proportion of cells undergoing apoptosis as evidenced by membrane blebbing” value in data set [5] was “approximately 10%”.

Compound `NC1=NCCN1CC(=O)O` [Cyclocreatine] returned an IC50 in data set [1] of 3000 µM.
